Experimental data: patent US20260217748A1, “IBOGAINE AND N[…] AND METHODS OF USE” (Atai Therapeutics, Inc., priority 2022, published 2026)
≈ marks a conversion by molar mass, not a printed value.

How the values were obtained:
[1] = target: SERT (Homo sapiens, UniProt P31645); experiment: SERT Cellular Functional assay; type: cell-based
[2] = target: hERG (Homo sapiens, UniProt Q12809); experiment: hERG Binding assay
[3] = PBS solubility; type: physicochemical; settings: aqueous buffer
[4] = Chrom logD; type: physicochemical
[5] = Microsome half-life RLM; type: in vitro ADME; settings: rat, liver microsomes

hERG, sequence (Q12809 whole entry): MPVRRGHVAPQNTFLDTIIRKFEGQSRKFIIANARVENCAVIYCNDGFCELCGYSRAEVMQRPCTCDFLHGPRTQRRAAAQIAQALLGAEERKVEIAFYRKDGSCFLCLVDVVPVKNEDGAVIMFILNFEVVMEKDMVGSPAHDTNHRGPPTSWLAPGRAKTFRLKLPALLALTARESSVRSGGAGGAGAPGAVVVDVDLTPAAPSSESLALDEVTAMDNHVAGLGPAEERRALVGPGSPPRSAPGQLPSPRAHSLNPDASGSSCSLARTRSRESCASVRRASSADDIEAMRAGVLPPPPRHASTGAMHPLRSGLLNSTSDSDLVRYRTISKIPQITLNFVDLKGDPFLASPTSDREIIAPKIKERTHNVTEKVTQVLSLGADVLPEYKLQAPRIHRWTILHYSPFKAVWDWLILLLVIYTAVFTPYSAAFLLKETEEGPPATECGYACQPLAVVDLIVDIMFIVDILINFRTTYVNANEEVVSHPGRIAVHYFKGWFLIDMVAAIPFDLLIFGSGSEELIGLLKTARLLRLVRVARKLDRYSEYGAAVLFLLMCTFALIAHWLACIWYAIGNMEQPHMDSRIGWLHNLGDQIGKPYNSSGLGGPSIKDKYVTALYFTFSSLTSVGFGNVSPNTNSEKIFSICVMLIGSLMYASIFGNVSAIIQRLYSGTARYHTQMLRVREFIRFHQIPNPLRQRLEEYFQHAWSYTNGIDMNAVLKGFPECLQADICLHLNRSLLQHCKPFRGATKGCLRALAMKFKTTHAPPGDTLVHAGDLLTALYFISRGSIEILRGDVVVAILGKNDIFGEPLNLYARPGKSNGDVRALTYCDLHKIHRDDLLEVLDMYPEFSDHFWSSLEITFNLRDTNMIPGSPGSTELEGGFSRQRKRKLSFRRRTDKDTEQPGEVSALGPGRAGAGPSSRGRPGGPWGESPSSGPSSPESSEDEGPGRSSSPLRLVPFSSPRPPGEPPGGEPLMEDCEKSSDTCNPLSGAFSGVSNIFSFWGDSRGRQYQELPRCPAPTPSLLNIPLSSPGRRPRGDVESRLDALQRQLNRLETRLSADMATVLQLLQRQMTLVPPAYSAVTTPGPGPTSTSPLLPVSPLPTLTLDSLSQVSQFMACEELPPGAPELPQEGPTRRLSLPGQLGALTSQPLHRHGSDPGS
SERT, sequence (P31645 whole entry, species assumed): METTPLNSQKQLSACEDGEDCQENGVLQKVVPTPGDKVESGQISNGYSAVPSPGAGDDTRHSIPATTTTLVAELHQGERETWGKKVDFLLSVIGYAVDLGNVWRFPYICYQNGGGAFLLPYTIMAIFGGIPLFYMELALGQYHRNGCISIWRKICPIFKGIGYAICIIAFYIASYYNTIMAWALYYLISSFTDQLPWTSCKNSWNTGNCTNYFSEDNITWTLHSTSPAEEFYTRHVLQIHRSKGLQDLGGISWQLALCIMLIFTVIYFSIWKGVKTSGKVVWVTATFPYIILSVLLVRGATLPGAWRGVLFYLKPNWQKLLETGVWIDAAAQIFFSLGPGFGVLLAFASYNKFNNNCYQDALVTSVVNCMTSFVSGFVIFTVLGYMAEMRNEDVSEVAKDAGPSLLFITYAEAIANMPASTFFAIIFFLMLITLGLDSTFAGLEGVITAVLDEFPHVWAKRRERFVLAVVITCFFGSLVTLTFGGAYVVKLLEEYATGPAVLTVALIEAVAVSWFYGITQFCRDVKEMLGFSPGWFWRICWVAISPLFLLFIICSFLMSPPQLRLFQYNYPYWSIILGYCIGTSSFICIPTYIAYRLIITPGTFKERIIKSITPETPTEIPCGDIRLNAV

With `CC[C@H]1CC2C[C@H]3c4[nH]c5ccc(OC(C)OC)cc5c4CC[N@@](C2)C13` (stereo partly drawn) [Compound 3, (6R,7S,9S,11S)-7-ethyl-2-(1-methoxyethoxy)-6,6a,7,8,9,10,12,13-octahydro-5H-6,9-methanopyrido[1′,2′:1,2]azepino[4,5-b]indole] the IC50 [1] was 11.9 µM, the IC50 [2] was > 10 µM and the solubility [3] was 245 µM (≈ 86.9 µg/mL). For the same compound, the chromatographic logD [4] was 4.9, the half-life ([5]; +NADPH) was 4 min and the half-life ([5]; −NADPH) was > 200 min.
